Data published in patent US9962430B2, “Methods for treating pain associated with chronic pancreatitis” (priority 2012, dated 2018).

Key:
[1] = system: patients with CP; conditions: cited from earlier work
[2] = system: patients with type B pain from chronic pancreatitis; assay: Phase II dose-escalation trial: daily opioid use converted to morphine equivalents; assay type: in vivo, human; conditions: for daily opioid usage (oral morphine equivalents): baseline 136 mg
[3] = system: patients with type B pain from chronic pancreatitis; assay: Phase II dose-escalation trial: 10 point visual analogue scale (VAS) pain assessment; assay type: in vivo, human; conditions: for mean pain score (VAS): all patients, baseline mean VAS 5.79; for Pain (VAS 0-10), mean: 100 min post dose, baseline 6.04
[4] = system: patients with type B pain from chronic pancreatitis; assay: Phase II dose-escalation trial: quality of life by SF-36 score; assay type: in vivo, human; conditions: for mean SF-36 score: baseline 101.3
[5] = 800 CU (160 mcg) twice daily for seven days, drug administration arm

depot secretin: subcutaneous depot secretin, 800 CU (160 mcg) twice daily, Tympner and Rosch 1986
serum amylase levels ([1]; 800 CU (160 mcg) twice daily for seven days): strong trend towards decreased
lactoferrin [1, 5]: decreased
trypsin [1, 5]: decreased
viscosity of pancreatic secretion [1, 5]: decreased
pain levels at the end of the study ([1]; 800 CU (160 mcg) twice daily injection for seven days, p<0.05): significantly improved

sHS: ChiRhoStim (human secretin for injection) provided by ChiRhoClin Inc.; 27 amino acid gastrointestinal peptide hormone
daily opioid equivalent, females ([2]; Day 30, females, baseline 107 mg, p=0.53): 84 mg
daily opioid usage (oral morphine equivalents) ([2]; day 4 post-therapy, p=0.52): 111 mg
daily opioid usage (oral morphine equivalents) ([2]; day 30 post-therapy, p=0.34): 104 mg
mean pain (VAS), female subgroup ([3]; day 30, females, baseline 5.42, p=0.07): 3.67
optimal dosing based on the change in the VAS score ([3]; dose-escalation 0.05-0.8 mcg/kg IV bolus): 0.4 µg/kg
mean pain score (VAS) ([3]; post-treatment day 4, p=0.25 vs baseline, IV bolus 3x/day for 3 days): 4.80
mean pain score (VAS) ([3]; post-treatment day 10, p=0.19 vs baseline): 4.72
mean pain score (VAS) ([3]; post-treatment day 30, p=0.27 vs baseline): 4.90
Pain (VAS 0-10), mean ([3]; sHS dose 0.05 μg/kg): 4.92
Pain (VAS 0-10), mean ([3]; sHS dose 0.1 μg/kg): 5.06
Pain (VAS 0-10), mean ([3]; sHS dose 0.2 μg/kg): 4.92
Pain (VAS 0-10), mean ([3]; sHS dose 0.4 μg/kg): 4.5
Pain (VAS 0-10), mean ([3]; sHS dose 0.8 μg/kg): 5.36
mean SF-36 score ([4]; day 4): 100.9
mean SF-36 score ([4]; day 30): 101.5
quality of life as measured by SF-36 with therapy ([4]; overall statement): unaltered
